Test [1] concerns tumor endothelial cells (LL/2 lung cancer tumor). The test can be described thus: Lung LL2 ex vivo model of tumor angiogenesis. Particulars: for cytotoxicity at 40 µM: Mus musculus, Endothelial cell, 48 h, read-out: Cell death. Type of test: cell-based, mouse. The essentials:
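Mouse LL2 tumor fragments (~0.5×0.5×0.3 mm) embedded in Matrigel and grown in endothelial growth medium at 37° C until endothelial outgrowth (about 4 days) before drug treatment. About 48 h after drug addition, stained 10 min with fluorescein diacetate/propidium iodide; live (green) and dead (red) cells imaged at 2× with fixed channel settings.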

Test [2] has as its system tumor endothelial cells (CT26.CL25 colon cancer tumor). The test is described as follows: Colon CT26 ex vivo model of tumor angiogenesis. It is filed as cell-based. The note with it: Mus musculus, CT26, 48 h, read-out: Cell death. The procedure: This example describes a procedure to prepare a primary tumor angiogenesis model for assessing the efficacy of anti-cancer candidate agents.
1. The day before the experiment, spray all necessary tools with 70% ethanol and sterilize them under UV light overnight, including blade, dissecting and micro-dissecting scissors and […]. Place 24-well dishes at 4° C. to pre-chill plates and thaw Matrigel 24 hours before tumor dissection.
2. Spray 70% ethanol on working bench. Prepare two sterile petri dishes with 10 mL sterile PBS. Steps 3 and 4 are for mouse tumor models. For fresh human tumor, directly go to step 5.
3. Euthanize the tumor-bearing mice. Spray 70% ethanol on the mouse and remove the tumor using sterilized dissecting tools (avoid the fur). Rinse the tumor in petri dish with sterile PBS to remove ethanol and fur. Transfer the tumor to a new petri dish with PBS for dissection. Place the dish on ice.
4. Using pre-chilled sterile pipet tips to seed regular Matrigel in 24 well plates on ice. Matrigel (30 μL) is dropped in the middle of each well without touching the edge of the well (avoid introducing bubbles if possible).
5. Cut the tumor in halves using the sterile blade. Identify and isolate healthy tumor tissue that is not necrotic and is within the tumor capsule. Cut the healthy tumor tissue into small pieces. For instance, a suitable size for the tumor tissue is 0.5 mm (H)×0.5 mm (L)×0.3 mm (D) with a total volume of 0.075 mm^3.
6. Gently transfer and embed each tumor piece in the Matrigel drop in the 24-well plate. Place the embedded piece in the bottom and middle of each Matrigel drop. Keep the plate on ice all the time.
7. After seeding the tumor pieces, plates are incubated in a 37° C. cell culture incubator without medium for 10 minutes in order for the Matrigel to solidify.
8. Endothelial Growth Medium (0.5 mL) is added to each well and incubated at 37° C. with 5% CO2. Wait until the new endothelial cells have grown out of the tumor or are larger than 3 mm in diameter until treatment. This usually takes 4 days for the LL2 Lewis lung cancer model and 7 days for the CT26 colon cancer model. For human tumor models, the growth time is typically 2-3 weeks, depending on the tumor type. Media is changed every 4 days during prolonged culture. Typically, when the tumor tissue grows to 2 mm in diameter, it is good for drug testing. A size of about 3 mm in diameter can make visualization easier.
9. When the assay is ready to be analyzed for cell death (e.g., 48 hours after drug addition), prepare the dye mixture by mixing 6 μL of green dye to stain live cells (5 mg/mL Fluorescein diacetate or FDA in DMSO) with 30 μL of red dye (2.5 mg/mL Propidium iodide or PI in PBS) to stain dead cells in an Eppendorf tube. The FDA dye needs to be stored frozen in a −20° C. freezer because it has a labile ester bond.
10. Add 1 μL of the dye mixture to each well of the 24-well dish. It is usually performed one 24-well dish at a time given the amount of time needed to take pictures (the green dye is not as stable in the cells in the long term).
11. Gently rock the dish a few times to mix the dye with the media in the wells and incubate the dish at 37° C. for 10 min (too long incubation can make the green signal too intense).
12. Wash each well with 0.5 mL of sterile PBS and then add 0.5 mL of phenol red free SFM to each well. Alternatively 0.5 mL of regular Endothelial Cell Growth Media can be added to each well if this well needs to be continuously maintained after the experiment.
13. Look through all wells on an inverted microscope using the 2× objective lens to observe morphological changes.
14. Taking pictures in the red and green channels would allow not only the recording of the result but also more accurate quantitation of the result. To take pictures for all the wells, first pick a well that has robust red and green signals. […]

With `CCc1ccc(S(=O)(=O)c2cnc3ccc(OC(F)(F)F)cc3c2-n2cncn2)cc1` [compound 51, 3-((4-ethylphenyl)sulfonyl)-4-(1H-1,2,4-triazol-1-yl)-6-(trifluoromethoxy)quinoline], the cytotoxicity at 40 µM in test [1] was found to be 100%; in test [2] it was 20%.
Taken in the same sequence, the figures for `CCc1ccc(S(=O)(=O)c2cnc3ccc(OC(F)(F)F)cc3c2N2CCC3(CC2)OCCO3)cc1` [compound 52, 8-(3-((4-ethylphenyl)sulfonyl)-6-(trifluoromethoxy)quinolin-4-yl)-1,4-dioxa-8-azaspiro[4.5]decane] were 50% and 0%.
Taken in the same sequence, the figures for `N#Cc1ccc(S(=O)(=O)c2cnc3ccc(OC(F)(F)F)cc3c2N2CCC(N3CCCCC3)CC2)cc1` [compound 54, 4-((4-([1,4′-bipiperidin]-1′-yl)-6-(trifluoromethoxy)quinolin-3-yl)sulfonyl)benzonitrile] were 50% and 10%.
Taken in the same sequence, the figures for `CCc1ccc(S(=O)(=O)c2cnc3ccc(CC#N)cc3c2N2CCC(N3CCCCC3)CC2)cc1` [compound 55, 2-(4-([1,4′-bipiperidin]-1′-yl)-3-((4-ethylphenyl)sulfonyl)quinolin-6-yl)acetonitrile] were 70% and 50%.
For `COc1ccc(S(=O)(=O)c2cnc3ccc(OC(F)(F)F)cc3c2N2CCC(N3CCCCC3)CC2)cc1OC` [compound 56, 4-([1,4′-bipiperidin]-1′-yl)-3-((3,4-dimethoxyphenyl)sulfonyl)-6-(trifluoromethoxy)quinoline], the figures for the cytotoxicity at 40 µM in test [1] and in test [2] were 20% and 30%, respectively.
Taken in the same sequence, the figures for `COc1ccc(S(=O)(=O)c2cnc3ccc(OC(F)(F)F)cc3c2N2CCCN(C)CC2)cc1OC` [compound 57, 3-((3,4-dimethoxyphenyl)sulfonyl)-4-(4-methyl-1,4-diazepan-1-yl)-6-(trifluoromethoxy)quinoline] were 40% and 60%.
Taken in the same sequence, the figures for `COc1ccc(S(=O)(=O)c2cnc3ccc(OC(F)(F)F)cc3c2N2CCC(O)CC2)cc1OC` [compound 58, 1-(3-((3,4-dimethoxyphenyl)sulfonyl)-6-(trifluoromethoxy)quinolin-4-yl)piperidin-4-ol] were 50% and 50%.
`O=[N+]([O-])c1ccc(S(=O)(=O)c2cnc3ccc(OC(F)(F)F)cc3c2N2CCC(N3CCCCC3)CC2)cc1` [compound 59, 4-([1,4′-bipiperidin]-1′-yl)-3-((4-nitrophenyl)sulfonyl)-6-(trifluoromethoxy)quinoline]: the cytotoxicity at 40 µM in test [1] turned out to be 40%; in test [2] it was 50%.
Taken in the same sequence, the figures for `O=[N+]([O-])c1ccc(S(=O)(=O)c2cnc3ccc(OC(F)(F)F)cc3c2N2CCC(O)CC2)cc1` [compound 61, 1-(3-((4-nitrophenyl)sulfonyl)-6-(trifluoromethoxy)quinolin-4-yl)piperidin-4-ol] were 50% and 20%.
Taken in the same sequence, the figures for `CCOC(=O)c1ccc2ncc(S(=O)(=O)c3ccc(CC)cc3)c(N3CCC(O)CC3)c2c1` [compound 62, ethyl 3-((4-ethylphenyl)sulfonyl)-4-(4-hydroxypiperidin-1-yl)quinoline-6-carboxylate] were 30% and 70%.
Taken in the same sequence, the figures for `CCOC(=O)c1ccc2ncc(S(=O)(=O)c3ccc(CC)cc3)c(N3CCCN(C)CC3)c2c1` [compound 63, ethyl 3-((4-ethylphenyl)sulfonyl)-4-(4-methyl-1,4-diazepan-1-yl)quinoline-6-carboxylate] were 50% and 70%.
Take `CCOC(=O)c1ccc2ncc(S(=O)(=O)c3ccc(CC)cc3)c(N3CCC(N4CCCCC4)CC3)c2c1` [compound 64, ethyl 4-([1,4′-bipiperidin]-1′-yl)-3-((4-ethylphenyl)sulfonyl)quinoline-6-carboxylate]: the cytotoxicity at 40 µM in test [1] and in test [2] was 100% throughout.
As to `CCc1ccc(S(=O)(=O)c2cnc3ccc(C(=O)O)cc3c2N2CCC(O)CC2)cc1` [compound 65, 3-((4-ethylphenyl)sulfonyl)-4-(4-hydroxypiperidin-1-yl)quinoline-6-carboxylic acid], the cytotoxicity at 40 µM in test [1] amounted to 10%; in test [2] it was 0%.
For `CCc1ccc(S(=O)(=O)c2cnc3ccc(C(=O)O)cc3c2N2CCCN(C)CC2)cc1` [compound 66, 3-((4-ethylphenyl)sulfonyl)-4-(4-methyl-1,4-diazepan-1-yl)quinoline-6-carboxylic acid], the cytotoxicity at 40 µM in test [1] stood at 10%; in test [2], 0%.
Taken in the same sequence, the figures for `CCc1ccc(S(=O)(=O)c2cnc3ccc(C(=O)O)cc3c2N2CCC(N3CCCCC3)CC2)cc1` [compound 67, 4-([1,4′-bipiperidin]-1′-yl)-3-((4-ethylphenyl)sulfonyl)quinoline-6-carboxylic acid] were 10% and 0%.
As to `CCN(CC)c1c(S(=O)(=O)c2ccc(OC)c(OC)c2)cnc2ccc(OC(F)(F)F)cc12` [compound 68, 3-((3,4-dimethoxyphenyl)sulfonyl)-N,N-diethyl-6-(trifluoromethoxy)quinolin-4-amine], the results for the cytotoxicity at 40 µM in test [1] and in test [2] were 80% and 50%, respectively.
As for `COc1ccc(S(=O)(=O)c2cnc3ccc(OC(F)(F)F)cc3c2NCCO)cc1OC` [compound 69, 2-((3-((3,4-dimethoxyphenyl)sulfonyl)-6-(trifluoromethoxy)quinolin-4-yl)amino)ethan-1-ol], the “48 hrs (morphology observations after 48 hours)” value in test [1] (Lung LL2 ex vivo, Conc. 40 μm, 48 hrs) was determined as 0. The Cell death in test [1] (Lung LL2 ex vivo, Conc. 40 μm, drug treatment two days) amounted to 20%. Moreover, the cytotoxicity at 40 µM in test [2] is 0%.
`COc1ccc(S(=O)(=O)c2cnc3ccc(OC(F)(F)F)cc3c2N2CCCC(O)C2)cc1OC` (stereo not drawn) [compound 70, 1-(3-((3,4-dimethoxyphenyl)sulfonyl)-6-(trifluoromethoxy)quinolin-4-yl)piperidin-3-ol]: the cytotoxicity at 40 µM was determined as 40% in test [1] and 10% in test [2].
Consider `CCCN(CCC)c1c(S(=O)(=O)c2ccc(OC)c(OC)c2)cnc2ccc(OC(F)(F)F)cc12` [compound 71, 3-((3,4-dimethoxyphenyl)sulfonyl)-N,N-dipropyl-6-(trifluoromethoxy)quinolin-4-amine], for which the cytotoxicity at 40 µM in test [1] amounted to 10%; in test [2], 0%.
The matching figures for `COc1ccc(S(=O)(=O)c2cnc3ccc(OC(F)(F)F)cc3c2N(CCO)CCO)cc1OC` [compound 72, 2,2′-((3-((3,4-dimethoxyphenyl)sulfonyl)-6-(trifluoromethoxy)quinolin-4-yl)azanediyl)bis(ethan-1-ol)]: 20% and 0%.
The matching figures for `CCCCN(CCCC)c1c(S(=O)(=O)c2ccc(OC)c(OC)c2)cnc2ccc(OC(F)(F)F)cc12` [compound 74, N,N-dibutyl-3-((3,4-dimethoxyphenyl)sulfonyl)-6-(trifluoromethoxy)quinolin-4-amine]: 60% and 100%.
Taken in the same sequence, the figures for `CCc1ccc(S(=O)(=O)c2cnc3ccc([N+](=O)[O-])cc3c2N2CCC(O)CC2)cc1` [compound 75, 1-(3-((4-ethylphenyl)sulfonyl)-6-nitroquinolin-4-yl)piperidin-4-ol] were 80% and 0%.
